Several values for one entry are separate records, joined by “and”; a condition that tells them apart may be missing. Equal values may be shown once. Inconclusive results and toxic doses are left out. The calls were made as follows: active = survival T/C of 150% or more; inactive = T/C below 125% in these data.
System: BDF1 mice, B16 melanoma ip, median survival T/C
Assay: NCI In Vivo Anticancer Drug Screen. Data for tumor model B16 Melanoma (intraperitoneal) in B6D2F1 (BDF1) mice
Details: endpoint: median survival time, higher = longer survival
How it was run: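 Tumor-bearing mice received test compound or vehicle. Survival or tumor size was then measured in both groups. The treated-group figure was divided by the control-group figure.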

[1] = dose: 50.0 mg/kg/injection, schedule: Q01DX009 (ip), vehicle: Klucel (hydroxypropylcellulose) (HPC)
[2] = dose: 6.25 mg/kg/injection, schedule: Q01DX009 (ip), vehicle: saline
[3] = dose: 100.0 mg/kg/injection, schedule: Q01DX009 (ip), vehicle: saline with Tween-80
[4] = dose: 200.0 mg/kg/injection, schedule: Q01DX009 (ip), vehicle: saline with Tween-80
[5] = dose: 400.0 mg/kg/injection, schedule: Q01DX009 (ip), vehicle: saline with Tween-80
[6] = dose: 12.5 mg/kg/injection, schedule: Q01DX009 (ip), vehicle: saline
[7] = dose: 25.0 mg/kg/injection, schedule: Q01DX009 (ip), vehicle: saline
[8] = dose: 0.25 mg/kg/injection, schedule: Q01DX009 (ip), vehicle: saline
[9] = dose: 0.5 mg/kg/injection, schedule: Q01DX009 (ip), vehicle: saline
[10] = dose: 1.0 mg/kg/injection, schedule: Q01DX009 (ip), vehicle: saline
[11] = dose: 100.0 mg/kg/injection, schedule: Q01DX009 (ip), vehicle: Klucel (hydroxypropylcellulose) (HPC)
[12] = dose: 200.0 mg/kg/injection, schedule: Q01DX009 (ip), vehicle: Klucel (hydroxypropylcellulose) (HPC)
[13] = dose: 12.5 mg/kg/injection, schedule: Q01DX009 (ip), vehicle: saline with Tween-80
[14] = dose: 25.0 mg/kg/injection, schedule: Q01DX009 (ip), vehicle: saline with Tween-80
[15] = dose: 50.0 mg/kg/injection, schedule: Q01DX009 (ip), vehicle: saline with Tween-80
[16] = dose: 100.0 mg/kg/injection, schedule: Q04DX003 (ip), vehicle: Klucel (hydroxypropylcellulose) (HPC)
[17] = dose: 200.0 mg/kg/injection, schedule: Q04DX003 (ip), vehicle: Klucel (hydroxypropylcellulose) (HPC)
[18] = dose: 400.0 mg/kg/injection, schedule: Q04DX003 (ip), vehicle: Klucel (hydroxypropylcellulose) (HPC)
[19] = dose: 2.5 mg/kg/injection, schedule: Q01DX009 (ip), vehicle: saline

Measured: T/C

O=C(Oc1ccc(OC(=O)c2ccccc2)c2c1C(=O)C(CBr)=C(CBr)C2=O)c1ccccc1
inactive: dose: 6.25 mg/kg/injection, schedule: Q01DX009 (ip), vehicle: Klucel (hydroxypropylcellulose) (HPC) 97 % of control | dose: 12.5 mg/kg/injection, schedule: Q01DX009 (ip), vehicle: Klucel (hydroxypropylcellulose) (HPC) 100 % of control | dose: 25.0 mg/kg/injection, schedule: Q01DX009 (ip), vehicle: Klucel (hydroxypropylcellulose) (HPC) 97 % of control | [1] 101 % of control

O=C(O)c1ccc(Nc2c3ccccc3nc3ccccc23)cc1
active: dose: 42.0 mg/kg/injection, schedule: Q01DX009 (ip), vehicle: other 160 % of control | dose: 44.0 mg/kg/injection, schedule: Q01DX009 (ip), vehicle: Klucel (hydroxypropylcellulose) (HPC) 169 % of control | dose: 44.0 mg/kg/injection, schedule: Q01DX009 (ip), vehicle: saline with Tween-80 156 % of control
inactive: dose: 8.0 mg/kg/injection, schedule: Q01DX009 (ip), vehicle: other 103 % of control | dose: 12.0 mg/kg/injection, schedule: Q01DX009 (ip), vehicle: other 117 % of control | dose: 13.0 mg/kg/injection, schedule: Q01DX009 (ip), vehicle: saline with Tween-80 119 % of control | dose: 28.0 mg/kg/injection, schedule: Q01DX009 (ip), vehicle: other 117 % of control

CC(C)C1OC(=O)/C=C/C=C/C=C/C=C/C=C/CC(O)C(C)C(O)CC(O)CC(O)CC(O)CC(O)CC(O)CC(O)/C=C/C1C (stereo not given)
inactive: [2] 98 % of control

c1ccc(CSC2=NCCS2)cc1
inactive: [3] 102 % of control | [4] 105 % of control | [5] 97 % of control

CC(O)c1ccc[n+](CCc2cn(C)c3ccccc23)c1 (stereo not given)
inactive: [2] 107 % of control | [6] 113 % of control | [7] 104 % of control

Cc1ccc(S(=O)(=O)OCCN(CCOS(=O)(=O)c2ccc(C)cc2)c2ccc(F)cc2)cc1
active: dose: 50.0 mg/kg/injection, schedule: Q01DX009 (ip), vehicle: saline 154 % of control
inactive: dose: 0.17 mg/kg/injection, schedule: Q01DX009 (ip), vehicle: saline 115 % of control | dose: 0.35 mg/kg/injection, schedule: Q01DX009 (ip), vehicle: saline 108 % of control | dose: 0.7 mg/kg/injection, schedule: Q01DX009 (ip), vehicle: saline 106 % of control | dose: 1.5 mg/kg/injection, schedule: Q01DX009 (ip), vehicle: saline 115 % of control | dose: 3.13 mg/kg/injection, schedule: Q01DX009 (ip), vehicle: saline 119 % of control | [2] 117 % of control | dose: 12.5 mg/kg/injection, schedule: Q01DX009 (ip), vehicle: saline + alcohol 88 % of control | dose: 50.0 mg/kg/injection, schedule: Q01DX009 (ip), vehicle: saline + alcohol 110 % of control | dose: 100.0 mg/kg/injection, schedule: Q01DX009 (ip), vehicle: saline + alcohol 104 % of control

COC(=O)C1C2CC3c4[nH]c5cc(OC)ccc5c4CCN3CC2CC(OC)C1OC (stereo not given)
inactive: [8] 102 % of control | [9] 94 % of control | [10] 105 % of control | dose: 1.56 mg/kg/injection, schedule: Q01DX009 (ip), vehicle: saline 100 % of control | dose: 3.12 mg/kg/injection, schedule: Q01DX009 (ip), vehicle: saline 98 % of control | dose: 4.0 mg/kg/injection, schedule: Q01DX009 (ip), vehicle: saline 94 % of control and 100 % of control | [2] 103 % of control | dose: 8.0 mg/kg/injection, schedule: Q01DX009 (ip), vehicle: saline 104 % of control | [6] 106 % of control | dose: 16.0 mg/kg/injection, schedule: Q01DX009 (ip), vehicle: saline 99 % of control | [7] 101 % of control | dose: 32.0 mg/kg/injection, schedule: Q01DX009 (ip), vehicle: saline 94 % of control

O=C(CBr)c1ccc(I)cc1
inactive: dose: 1.25 mg/kg/injection, schedule: Q01DX009 (ip), vehicle: saline with Tween-80 90 % of control | dose: 2.5 mg/kg/injection, schedule: Q01DX009 (ip), vehicle: saline with Tween-80 102 % of control | dose: 5.0 mg/kg/injection, schedule: Q01DX009 (ip), vehicle: saline with Tween-80 95 % of control | dose: 10.0 mg/kg/injection, schedule: Q01DX009 (ip), vehicle: saline with Tween-80 95 % of control | dose: 20.0 mg/kg/injection, schedule: Q01DX009 (ip), vehicle: saline with Tween-80 88 % of control

Nc1cc(N)cc(Cc2ccccc2)c1
inactive: [1] 101 % of control | [11] 93 % of control | [12] 100 % of control

C[CH2][Ge]([CH2]C)[CH2]C.C[CH2][Ge]([CH2]C)[CH2]C.C[CH2][Ge]([CH2]C)[O][Ge]([CH2]C)[CH2]C
inactive: dose: 6.25 mg/kg/injection, schedule: Q01DX009 (ip), vehicle: saline with Tween-80 101 % of control | [13] 100 % of control | [14] 101 % of control | [15] 91 % of control | [3] 100 % of control

COc1ccc(NC(=O)COc2ccc(Cl)cc2)cc1
inactive: [11] 90 % of control | [12] 100 % of control | dose: 400.0 mg/kg/injection, schedule: Q01DX009 (ip), vehicle: Klucel (hydroxypropylcellulose) (HPC) 86 % of control

O=C(CCCC(=O)N1CCOCC1)N1CCOCC1
inactive: [16] 97 % of control | [17] 95 % of control | [18] 92 % of control

COCCOCCN1CCN(CCCN2c3ccccc3Sc3ccc(C(F)(F)F)cc32)CC1
inactive: dose: 0.31 mg/kg/injection, schedule: Q01DX009 (ip), vehicle: saline 106 % of control | dose: 0.62 mg/kg/injection, schedule: Q01DX009 (ip), vehicle: saline 101 % of control | dose: 1.25 mg/kg/injection, schedule: Q01DX009 (ip), vehicle: saline 108 % of control | [19] 100 % of control

Cc1ccc(NC(=O)Nc2cccc3ccccc23)c(C)c1
inactive: [11] 89 % of control | [12] 98 % of control

CN(CCCN(C)CCC1CCCCC1)CCC1CCCCC1
inactive: [13] 92 % of control | [14] 95 % of control

Cc1ccc(S(=O)(=O)Oc2ccc(-c3ccc(OS(=O)(=O)c4ccc(C)cc4)cc3)cc2)cc1
inactive: [15] 105 % of control | [3] 90 % of control

Oc1ccccc1O.[O-]c1ccccc1[O-].[O-]c1ccccc1[O-].[O]=[V+2]
inactive: [19] 88 % of control | dose: 5.0 mg/kg/injection, schedule: Q01DX009 (ip), vehicle: saline 91 % of control | dose: 10.0 mg/kg/injection, schedule: Q01DX009 (ip), vehicle: saline 97 % of control

NC(CC(=O)NC(=O)OCc1ccccc1)C(=O)O (stereo not given)
inactive: [3] 100 % of control | [4] 105 % of control | [5] 110 % of control

CS(=O)(=O)Nc1ccc(C(=O)O)cc1
inactive: [11] 100 % of control | [12] 102 % of control

O=[N+]([O-])c1cccc(S(=O)(=O)N2CCN(S(=O)(=O)c3cccc([N+](=O)[O-])c3)C2)c1
inactive: [16] 109 % of control | [17] 102 % of control | [18] 94 % of control

NC(=S)N/N=C1/c2cc(Cl)ccc2-c2c(Cl)cc(Cl)cc21
inactive: [3] 93 % of control | [4] 95 % of control | [5] 93 % of control | dose: 800.0 mg/kg/injection, schedule: Q01DX009 (ip), vehicle: saline with Tween-80 95 % of control

CC(=Nc1ccccc1)C1=C(O)C(Cc2ccc(O)cc2)NC1=O (stereo not given)
inactive: [13] 111 % of control

O=[N+]([O-])c1cc(S(=O)(=O)OCC2CO2)ccc1Cl (stereo not given)
inactive: dose: 0.1 mg/kg/injection, schedule: Q01DX009 (ip), vehicle: saline with Tween-80 100 % of control | dose: 0.2 mg/kg/injection, schedule: Q01DX009 (ip), vehicle: saline with Tween-80 93 % of control | dose: 0.4 mg/kg/injection, schedule: Q01DX009 (ip), vehicle: saline with Tween-80 97 % of control | dose: 0.8 mg/kg/injection, schedule: Q01DX009 (ip), vehicle: saline with Tween-80 95 % of control

COC(=O)C1(C)CCC(c2ccc(OC)cc2)CC1=O (stereo not given)
inactive: [1] 90 % of control | [12] 87 % of control

Cc1n(Cc2ccccc2)c2c([n+]1C)C(=O)c1ccccc1C2=O
inactive: dose: 0.13 mg/kg/injection, schedule: Q01DX009 (ip), vehicle: saline 95 % of control | [8] 95 % of control | [9] 95 % of control | [10] 87 % of control
